Measured values reported in ChEMBL document CHEMBL4033673, “Conformational control in structure-based drug design” (Bioorg Med Chem Lett, 2017).
One block for each compound: values may come before it.

Columns and labels:
[1] = biological target: T1, Mineralocorticoid receptor (Homo sapiens, UniProt P08235); assay: Antagonist activity at mineralocorticoid receptor (unknown origin)
T1 sequence (P08235 whole entry): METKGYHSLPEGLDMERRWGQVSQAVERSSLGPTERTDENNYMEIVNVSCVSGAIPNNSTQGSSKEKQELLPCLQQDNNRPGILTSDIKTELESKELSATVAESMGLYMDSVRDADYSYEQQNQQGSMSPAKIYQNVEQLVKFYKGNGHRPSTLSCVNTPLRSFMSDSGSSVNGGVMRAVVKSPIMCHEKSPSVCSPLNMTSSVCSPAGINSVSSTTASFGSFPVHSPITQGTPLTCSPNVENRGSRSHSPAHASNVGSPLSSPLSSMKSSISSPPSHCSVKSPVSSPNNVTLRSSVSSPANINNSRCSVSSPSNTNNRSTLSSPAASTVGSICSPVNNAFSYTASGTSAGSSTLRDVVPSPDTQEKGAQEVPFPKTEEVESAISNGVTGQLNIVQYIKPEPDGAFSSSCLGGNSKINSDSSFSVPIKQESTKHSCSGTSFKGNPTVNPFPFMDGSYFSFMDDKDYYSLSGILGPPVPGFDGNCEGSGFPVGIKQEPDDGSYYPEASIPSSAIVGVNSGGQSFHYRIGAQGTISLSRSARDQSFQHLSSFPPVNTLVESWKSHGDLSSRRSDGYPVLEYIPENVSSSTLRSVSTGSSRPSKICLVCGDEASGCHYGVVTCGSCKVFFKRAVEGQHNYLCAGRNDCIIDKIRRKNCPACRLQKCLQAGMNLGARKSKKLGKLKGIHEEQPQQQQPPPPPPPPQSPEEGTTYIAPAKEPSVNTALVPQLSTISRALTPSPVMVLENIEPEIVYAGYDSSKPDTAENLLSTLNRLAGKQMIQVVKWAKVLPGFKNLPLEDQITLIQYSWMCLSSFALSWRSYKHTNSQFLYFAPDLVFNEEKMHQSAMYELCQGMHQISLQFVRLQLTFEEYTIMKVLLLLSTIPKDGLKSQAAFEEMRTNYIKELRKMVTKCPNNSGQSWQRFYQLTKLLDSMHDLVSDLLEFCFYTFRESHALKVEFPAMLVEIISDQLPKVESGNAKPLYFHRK

[2] = Displacement of (2S)-N-(2-phenylphenyl)-1-[2-[1-(tritritiomethyl)benzimidazol-2-yl]sulfanylacetyl]pyrrolidine-2-carboxamide from human OX1 receptor Ile408-Val mutant expressed on CHO cell membrane measured after 3 hrs by TopCount method
Orexin receptor type 2 = biological target: T2, Orexin receptor type 2 (Homo sapiens, UniProt O43614); assay: Displacement of (2S)-N-(2-pyrrol-1-ylphenyl)-1-[2-[1-(tritritiomethyl)benzimidazol-2-yl]sulfanylacetyl]pyrrolidine-2-carboxamide from recombinant human OX2 receptor expressed in CHO cell membranes after 3 hrs by Topcount method
T2 sequence (O43614 whole entry): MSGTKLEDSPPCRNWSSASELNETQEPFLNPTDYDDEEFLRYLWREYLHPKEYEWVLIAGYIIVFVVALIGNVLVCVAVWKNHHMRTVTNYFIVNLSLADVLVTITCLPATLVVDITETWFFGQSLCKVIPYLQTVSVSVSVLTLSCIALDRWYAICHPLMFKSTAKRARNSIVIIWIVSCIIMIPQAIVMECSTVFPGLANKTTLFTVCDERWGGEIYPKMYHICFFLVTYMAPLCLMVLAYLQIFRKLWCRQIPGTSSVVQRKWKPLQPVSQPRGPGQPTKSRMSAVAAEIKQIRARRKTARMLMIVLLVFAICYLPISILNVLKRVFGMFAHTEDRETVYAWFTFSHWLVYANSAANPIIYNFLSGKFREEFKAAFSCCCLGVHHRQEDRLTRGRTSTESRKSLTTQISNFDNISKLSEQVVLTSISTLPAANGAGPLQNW

- Ki [1]: 196 nM
Structure (SMILES): O=C1COc2ccc(N3CCc4ccc(F)cc4CC3)cc2N1

Structure (SMILES): Cc1ccc(-n2nccn2)c(C(=O)N2CCCC(COc3ccc(F)cn3)C2)c1 (stereo not drawn)
- Ki [2]: 96 nM

- Ki (Orexin receptor type 2): 0.2 nM
Structure (SMILES): Cc1ccc(-n2nccn2)c(C(=O)N2CCC[C@@H](COc3ccc(F)cn3)[C@@H]2C)c1 (relative stereo)
